Experimental data taken from patent US20230104487A1, “11-(4-CHLOROPHENYL)-4-(2,3-DIHYDRO-1H-INDOLE-1-CARBONYL)-3,11-DIMETHYL-5,10,DIOXATRICYCLO[7.4.0.0,2,6,]TRIDECA-1,3,6,8-TETRAEN-13-ONE AND DERIVATIVES AS DESTABILIZER OF CRY1 FOR THE TREATMENT OF CIRCADIAN RHYTHM ASSOCIATED DISEASES AND DISORDERS” (KOC UNIVERSITESI, priority 2019, published 2023).
“Also recorded” adds a separate entry of the source.

What was measured:
[1] = system: Cry1−/−/Cry2−/− mouse embryonic fibroblasts; assay: Circadian reporter assay in CRY double knockout MEFs (mPer2-dLuc); format: cell-based; details: DKO-MEF transfected with mPer2-luc
Description: Luminescence values were recorded at 32° C. for each 30 minutes with 15 seconds integration time via Synergy H1 luminometer for a week. For LumiCycle, 400×10^3 U2-OS Bmal1-dLuc or NIH3T3 mPer2-dLuc cells were seeded to 35 mm plates and then procedure given above was followed with a change in the last step. Plates were sealed with vacuum grease and placed to LumiCycle. Each plate was recorded continuously every 10 minutes for 70 seconds at 37° C. via photomultiplier tubes. Period and amplitude data were obtained from LumiCycle Analysis software. To detect the effect of FORMULA I in the absence of CRYs, Cry1^−/−/Cry2^−/− mouse embryonic fibroblasts (CRYDKO MEFs) transiently transfected with pGL3-Per2-Luc (luciferase reporter) were used. 3×10^5 CRYDKO cells were seeded in 35 mm clear plates. Next day, cells were transfected with 4000 ng pGL3-Per2-Luc via Fugene6 transfection reagent according to the manufacturer's instruction. In short, 3:1 ratio of Fugene6 in μl against transfected DNA amount in μg was kept in transfections. 72 h after transfection cells were synchronized with DXM for two hours. Then, medium was changed with lumicycle medium having DMSO or molecule, sealed with vacuum grease, and placed to LumiCycle.

[2] = system: Ras transformed p53-null MEF cell line; assay: Apoptosis assay (PARP cleavage) with oxaliplatin; format: cell-based, mouse; details: 0, 10 or 20 μM oxaliplatin followed by FORMULA I
Description: FIGS. 6A-6B are an illustration of FORMULA I enhanced the effect of oxalipilatin in p53 null MSF cells. Ras pT24 transformed p53 null MSF fibroblast cells were treated with 0, 10 or 20 μM oxaliplatin and incubated for 24 h. Then either DMSO or FORMULA I was added and incubated for 16 h. Cells were lysed and analyzed via protein immunoblot technique. […] Bar graph was drawn normalizing to 10 μM dosage of oxaliplatin (Data represent the mean±SEM, n=4 **: p<0.005, * p<0.05 versus DMSO control by two-way ANOVA).
In previous studies it was reported that […] mutation sensitizes the Ras transformed p53-null cells, but not cells with wild-type p53, to apoptosis induced by UV or UV mimetic agents e.g oxaliplatin. Using fibroblasts isolated from the skin of Cry1^−/−Cry2^−/−p53^−/− and p53^−/− mice, it has been shown that Cry deletion on the p53-null background sensitized the cells to bulky-DNA adduct-induced apoptosis (Lee and Sancar, 2011). With the expectation that FORMULA I would destabilize CRY1 and increase the effectiveness of UV mimetic chemotherapeutic agents, we performed apoptosis assay with Ras transformed p53-null MEF cell lines. In this assay, cells were treated by increasing dose of oxaliplatin for 16 h followed by FORMULA I treatment for 24 h and probed for apoptosis by measuring PARP cleavage. […]

SMILES: Cc1c(C(=O)N2CCc3ccccc32)oc2ccc3c(c12)C(=O)CC(C)(c1ccc(Cl)cc1)O3 (centres unmarked) [FORMULA I, 11-(4-chlorophenyl)-4-(2,3-dihydro-1H-indole-1-carbonyl)-3,11-dimethyl-5,10,dioxatricyclo[7.4.0.0,2,6,]trideca-1,3,6,8-tetraen-13-one]
- effect on rhythm in absence of CRYs [1]: had no effect
- oxaliplatin-induced apoptosis (cleaved PARP) [2]: sensitized Ras transformed p53-null MEF cell line to oxaliplatin-induced apoptosis; also recorded: increases the cleaved PARP protein level
